This note sets out measurements from patent publication US11498923B2 (Merck Sharp & Dohme Corp., priority 2017, dated 2022).

pKi: −log10 of the molar value.

For the first assay, the target named is T1, human A2a receptor (Homo sapiens, UniProt P29274).
T1 construct: purchased Perkin-Elmer RBHA2AM400UA; host or cells: HEK293 cells, used as a membrane preparation
T1 sequence (P29274 whole entry): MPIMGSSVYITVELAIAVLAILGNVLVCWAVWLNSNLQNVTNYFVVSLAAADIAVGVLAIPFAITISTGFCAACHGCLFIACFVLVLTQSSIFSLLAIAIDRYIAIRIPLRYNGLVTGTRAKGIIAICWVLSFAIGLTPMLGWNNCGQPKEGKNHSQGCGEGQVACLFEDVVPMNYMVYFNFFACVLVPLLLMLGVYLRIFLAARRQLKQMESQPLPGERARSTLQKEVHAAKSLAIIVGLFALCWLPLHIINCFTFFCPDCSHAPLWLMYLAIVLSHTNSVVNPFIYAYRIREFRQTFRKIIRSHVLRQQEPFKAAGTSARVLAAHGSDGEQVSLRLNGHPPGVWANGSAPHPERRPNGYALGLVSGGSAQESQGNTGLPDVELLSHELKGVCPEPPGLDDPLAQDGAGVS
The assay can be described thus: A2a receptor competition binding assay (Scintillation Proximity). The following applies: A2a Ki, membranes from HEK293 cells expressing human A2a receptor; 0.5 nM tritiated ligand; Cheng-Prusoff. Summed up:
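HEK293 membranes bearing the human receptor, pretreated with adenosine deaminase, competed against 0.5 nM tritiated pyrazolotriazolopyrimidine antagonist with compound at 3000–0.15 nM final in DPBS plus 10 mM MgCl2. SPA bead readout after 1 h at room temperature; Ki from EC50 via Cheng-Prusoff.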
(In general: SPA uses beads or plates that emit light when radiolabelled molecules are held near them.)
As for `COc1cccc2c1nc(N)n1cc(C(=O)N3C4CCCC3CC4)nc21` [Ex-208, (5-amino-7-methoxyimidazo[1,2-c]quinazolin-2-yl)(8-azabicyclo[3.2.1]octan-8-yl)methanone], the pKi (usually the Ki on a negative log10 scale, so that one unit is a factor of ten) is 8.49.
The same measure, in the same setting: then `COc1cccc2c1nc(N)n1cc(C(=O)N3C4CCC3CC4)nc21` [Ex-218, (5-amino-7-methoxyimidazo[1,2-c]quinazolin-2-yl)((1s,4s)-7-azabicyclo[2.2.1]heptan-7-yl)methanone], with 8.21; and `COc1cccc2c1nc(N)n1cc(C(=O)N3C4CCC3COC4)nc21` [Ex-224, (5-amino-7-methoxyimidazo[1,2-c]quinazolin-2-yl)(3-oxa-8-azabicyclo[3.2.1]octan-8-yl)methanone], with 8.09.

Still in this assay, the particulars now being: membranes from HEK293 cells expressing human A2a receptor; 0.5 nM tritiated ligand; Cheng-Prusoff; read-out: A2a Ki.
`COc1cccc2c1nc(N)n1cc(C(=O)N3CCC4(CCCC4)CC3)nc21` [Ex-202, (5-amino-7-methoxyimidazo[1,2-c]quinazolin-2-yl)(8-azaspiro[4.5]decan-8-yl)methanone]: the pKi was 8.28.
For `COc1cccc2c1nc(N)n1cc(C(=O)N3CCCC4(COC4)C3)nc21` [Ex-203, (5-amino-7-methoxyimidazo[1,2-c]quinazolin-2-yl)(2-oxa-6-azaspiro[3.5]nonan-6-yl)methanone], the pKi was 7.96.
On the same count and under the same terms, then `COc1cccc2c1nc(N)n1cc(C(=O)N3CCCC4(CCCCO4)C3)nc21` (stereo not shown) [Ex-204, (5-amino-7-methoxyimidazo[1,2-c]quinazolin-2-yl)(1-oxa-8-azaspiro[5.5]undecan-8-yl)methanone], with 7.92; and `COc1cccc2c1nc(N)n1cc(C(=O)N3CCCC4(CCCO4)C3)nc21` (stereo not shown) [Ex-205, (5-amino-7-methoxyimidazo[1,2-c]quinazolin-2-yl)(1-oxa-7-azaspiro[4.5]decan-7-yl)methanone], with 7.89; and `COc1cccc2c1nc(N)n1cc(C(=O)N3CCC4(CC3)COC4)nc21` [Ex-206, (5-amino-7-methoxyimidazo[1,2-c]quinazolin-2-yl)(2-oxa-7-azaspiro[3.5]nonan-7-yl)methanone], with 6.96.
In the case of `COc1cccc2c1nc(N)n1cc(C(=O)N3CCC(C)(C)CC3)nc21` [Ex-207, (5-amino-7-methoxyimidazo[1,2-c]quinazolin-2-yl)(4,4-dimethylpiperidin-1-yl)methanone], the negative-log Ki (pKi) was 8.68.
Same read-out and setting: then `COc1cccc2c1nc(N)n1cc(C(=O)N3CCCC3C(C)C)nc21` (stereo not shown) [Ex-209, (5-amino-7-methoxyimidazo[1,2-c]quinazolin-2-yl)(2-isopropylpyrrolidin-1-yl)methanone], with 8.54; and `COc1cccc2c1nc(N)n1cc(C(=O)N3C(C)CCC3C)nc21` (stereo not shown) [Ex-210, (5-amino-7-methoxyimidazo[1,2-c]quinazolin-2-yl)(2,5-dimethylpyrrolidin-1-yl)methanone], with 8.21.
Still for that read-out and setting: then `COc1cccc2c1nc(N)n1cc(C(=O)N3CCC[C@H]3C(F)(F)F)nc21` [Ex-211, (S)-(5-amino-7-methoxyimidazo[1,2-c]quinazolin-2-yl)(2-(trifluoromethyl)pyrrolidin-1-yl)methanone], with 7.85; and `COc1cccc2c1nc(N)n1cc(C(=O)N3CC[C@H](OC)C3)nc21` [Ex-212, (S)-(5-amino-7-methoxyimidazo[1,2-c]quinazolin-2-yl)(3-methoxypyrrolidin-1-yl)methanone], with 8.26; and `COc1cccc2c1nc(N)n1cc(C(=O)N3CC[C@@H](OC)C3)nc21` [Ex-213, (R)-(5-amino-7-methoxyimidazo[1,2-c]quinazolin-2-yl)(3-methoxypyrrolidin-1-yl)methanone], with 8.00.
The same measure, in the same setting: then `COc1cccc2c1nc(N)n1cc(C(=O)N3CC[C@@H](CF)C3)nc21` [Ex-214, (R)-(5-amino-7-methoxyimidazo[1,2-c]quinazolin-2-yl)(3-(fluoromethyl)pyrrolidin-1-yl)methanone], with 7.96.
Consider `COc1cccc2c1nc(N)n1cc(C(=O)N3CC[C@H](F)C3)nc21` [Ex-215, (S)-(5-amino-7-methoxyimidazo[1,2-c]quinazolin-2-yl)(3-fluoropyrrolidin-1-yl)methanone], for which the pKi is 8.13.
With `COc1cccc2c1nc(N)n1cc(C(=O)N3CCC[C@@H]3C)nc21` [Ex-216, (S)-(5-amino-7-methoxyimidazo[1,2-c]quinazolin-2-yl)(2-methylpyrrolidin-1-yl)methanone], the pKi is 8.00.
`COc1cccc2c1nc(N)n1cc(C(=O)N3CCC[C@@H]3C(F)(F)F)nc21` [Ex-217, (R)-(5-amino-7-methoxyimidazo[1,2-c]quinazolin-2-yl)(2-(trifluoromethyl)pyrrolidin-1-yl)methanone]: the pKi is 8.11.
For `COc1cccc2c1nc(N)n1cc(C(=O)N3CCC[C@H]3CF)nc21` [Ex-219, (S)-(5-amino-7-methoxyimidazo[1,2-c]quinazolin-2-yl)(2-(fluoromethyl)pyrrolidin-1-yl)methanone], the pKi is 8.44.
Consider `COc1cccc2c1nc(N)n1cc(C(=O)N3CCC4OCCC43)nc21` (stereo not shown) [Ex-220, (5-amino-7-methoxyimidazo[1,2-c]quinazolin-2-yl)(hexahydro-4H-furo[3,2-b]pyrrol-4-yl)methanone], for which the pKi is 7.62.
Turning to `COc1cccc2c1nc(N)n1cc(C(=O)N3CCC(F)(F)C3)nc21` [Ex-221, (5-amino-7-methoxyimidazo[1,2-c]quinazolin-2-yl)(3,3-difluoropyrrolidin-1-yl)methanone], the pKi was 8.18.
For `COc1cccc2c1nc(N)n1cc(C(=O)N3CCC4(CCCC4)C3)nc21` [Ex-222, (5-amino-7-methoxyimidazo[1,2-c]quinazolin-2-yl)(2-azaspiro[4.4]nonan-2-yl)methanone], the pKi was 7.96.
Same read-out and setting: then `COc1cccc2c1nc(N)n1cc(C(=O)N3CC(C)(C)OC(C)(C)C3)nc21` [Ex-223, (5-amino-7-methoxyimidazo[1,2-c]quinazolin-2-yl)(2,2,6,6-tetramethylmorpholino) methanone], with 6.68; and `COc1cccc2c1nc(N)n1cc(C(=O)N3C[C@@H]4C[C@H]3CO4)nc21` [Ex-225, (5-amino-7-methoxyimidazo[1,2-c]quinazolin-2-yl)((1S,4S)-2-oxa-5-azabicyclo[2.2.1]heptan-5-yl)methanone], with 7.46.
For the molecule `COC(=O)C1CCN(C(=O)c2cn3c(N)nc4c(OC)cccc4c3n2)CC1` [Ex-226, methyl 1-(5-amino-7-methoxyimidazo[1,2-c]quinazoline-2-carbonyl]piperidine-4-carboxylate], the pKi is 7.54.
Regarding `COc1cccc2c1nc(N)n1cc(C(=O)N3CCC4(CCC(=O)O4)CC3)nc21` [Ex-227, 8-(5-amino-7-methoxyimidazo[1,2-c]quinazoline-2-carbonyl)-1-oxa-8-azaspiro[4.5]decan-2-one], the pKi is 6.62.
On the same count and under the same terms, then `COc1cccc2c1nc(N)n1cc(C(=O)N3CCC4(CCOC4=O)CC3)nc21` [Ex-228, 8-(5-amino-7-methoxyimidazo[1,2-c]quinazoline-2-carbonyl)-2-oxa-8-azaspiro[4.5]decan-1-one], with 6.74; and `COc1cccc2c1nc(N)n1cc(C(=O)N3CCCC4(C3)CC(C)(C)OC4=O)nc21` (stereo not shown) [Ex-229, 7-(5-amino-7-methoxyimidazo[1,2-c]quinazoline-2-carbonyl)-3,3-dimethyl-2-oxa-7-azaspiro[4.5]decan-1-one], with 7.82.
`COc1cccc2c1nc(N)n1cc(C(=O)N3CCC4(CCCO4)CC3)nc21` [Ex-230, (5-amino-7-methoxyimidazo[1,2-c]quinazolin-2-yl)(1-oxa-8-azaspiro[4.5]decan-8-yl)methanone]: the pKi is 7.21.
As for `COc1cccc2c1nc(N)n1cc(C(=O)N3CCCC4(C3)OCCO4)nc21` [Ex-231, (5-amino-7-methoxyimidazo[1,2-c]quinazolin-2-yl)(1,4-dioxa-7-azaspiro[4.5]decan-7-yl)methanone], the pKi was 8.00.
Consider `COc1cccc2c1nc(N)n1cc(C(=O)N3CCCC(OC)(OC)C3)nc21` [Ex-232, (5-amino-7-methoxyimidazo[1,2-c]quinazolin-2-yl)(3,3-dimethoxypiperidin-1-yl)methanone], for which the pKi was 7.74.
Take `COc1cccc2c1nc(N)n1cc(C(=O)N3CCCC4(CCOC4=O)C3)nc21` (stereo not shown) [Ex-233, 7-(5-amino-7-methoxyimidazo[1,2-c]quinazoline-2-carbonyl)-2-oxa-7-azaspiro[4.5]decan-1-one]: the pKi was 8.00.
Turning to `COc1cccc2c1nc(N)n1cc(C(=O)N3CCC4(CC3)OCCC4(C)C)nc21` [Ex-234, (5-amino-7-methoxyimidazo[1,2-c]quinazolin-2-yl)(4,4-dimethyl-1-oxa-8-azaspiro[4.5]decan-8-yl)methanone], the pKi was 8.59.
The same measure, in the same setting: then `COc1cccc2c1nc(N)n1cc(C(=O)N3CC4CC4C3)nc21` (stereo not shown) [Ex-235, (5-amino-7-methoxyimidazo[1,2-c]quinazolin-2-yl)(3-azabicyclo[3.1.0]hexan-3-yl)methanone], with 8.55; and `COc1cccc2c1nc(N)n1cc(C(=O)N3C[C@@H]4[C@@H]5CC[C@@H](C5)[C@@H]4C3)nc21` [Ex-236, (5-amino-7-methoxyimidazo[1,2-c]quinazolin-2-yl)((3aR,4R,7S,7aS)-octahydro-2H-4,7-methanoisoindol-2-yl)methanone], with 8.19; and `COc1cccc2c1nc(N)n1cc(C(=O)N3CC4CC3CS(=O)(=O)C4)nc21` (stereo not shown) [Ex-237, (5-amino-7-methoxyimidazo[1,2-c]quinazolin-2-yl)(3,3-dioxido-3-thia-6-azabicyclo[3.2.1]octan-6-yl)methanone], with 7.43.
As to `COc1cccc2c1nc(N)n1cc(C(=O)N3CCC(=O)C3)nc21` [Ex-238, 1-(5-amino-7-methoxyimidazo[1,2-c]quinazoline-2-carbonyl)pyrrolidin-3-one], the pKi is 6.77.
